According to ChEMBL document CHEMBL1821555, “Identification of a series of 4-[3-(quinolin-2-yl)-1,2,4-oxadiazol-5-yl]piperazinyl ureas as potent smoothened antagonist hedgehog pathway inhibitors” (Bioorg Med Chem Lett, 2011):
Values belong to the compound of their own block, whether it stands above or below them.

What was measured:
Shh Light II [1] = assay: Inhibition of Shh signaling in mouse Shh-light2 cells by Gli-dependent firefly luciferase reporter gene assay; type: functional, cell-based
CYP2C9 = CYP2C9 (Homo sapiens, UniProt P11712); assay: Inhibition of CYP2C9 at 10 uM; type: ADME
Chain of CYP2C9 (P11712 whole entry): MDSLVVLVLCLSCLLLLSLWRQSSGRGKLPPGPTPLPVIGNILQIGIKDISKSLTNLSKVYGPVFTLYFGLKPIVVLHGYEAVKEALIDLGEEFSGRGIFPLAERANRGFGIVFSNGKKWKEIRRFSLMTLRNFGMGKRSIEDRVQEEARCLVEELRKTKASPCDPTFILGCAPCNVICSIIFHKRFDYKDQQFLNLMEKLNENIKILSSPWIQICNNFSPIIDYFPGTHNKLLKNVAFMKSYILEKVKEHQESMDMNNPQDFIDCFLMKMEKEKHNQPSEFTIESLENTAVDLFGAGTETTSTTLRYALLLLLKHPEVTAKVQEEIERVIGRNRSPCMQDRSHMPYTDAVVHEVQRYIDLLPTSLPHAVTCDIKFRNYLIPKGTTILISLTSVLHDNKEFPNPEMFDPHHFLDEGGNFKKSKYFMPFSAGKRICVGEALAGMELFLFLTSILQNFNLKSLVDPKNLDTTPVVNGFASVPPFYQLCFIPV

Protein smoothened [2] = molecular target: T1, Protein smoothened (Homo sapiens, UniProt Q99835); assay: Inhibition of Bodipy-labelled cyclopamine binding to Smo expressed in COS-1 cells in presence of 20% NHS after 4 to 6 hrs by FACS flow cytometric analysis; type: cell-based
T1 sequence (Q99835 whole entry): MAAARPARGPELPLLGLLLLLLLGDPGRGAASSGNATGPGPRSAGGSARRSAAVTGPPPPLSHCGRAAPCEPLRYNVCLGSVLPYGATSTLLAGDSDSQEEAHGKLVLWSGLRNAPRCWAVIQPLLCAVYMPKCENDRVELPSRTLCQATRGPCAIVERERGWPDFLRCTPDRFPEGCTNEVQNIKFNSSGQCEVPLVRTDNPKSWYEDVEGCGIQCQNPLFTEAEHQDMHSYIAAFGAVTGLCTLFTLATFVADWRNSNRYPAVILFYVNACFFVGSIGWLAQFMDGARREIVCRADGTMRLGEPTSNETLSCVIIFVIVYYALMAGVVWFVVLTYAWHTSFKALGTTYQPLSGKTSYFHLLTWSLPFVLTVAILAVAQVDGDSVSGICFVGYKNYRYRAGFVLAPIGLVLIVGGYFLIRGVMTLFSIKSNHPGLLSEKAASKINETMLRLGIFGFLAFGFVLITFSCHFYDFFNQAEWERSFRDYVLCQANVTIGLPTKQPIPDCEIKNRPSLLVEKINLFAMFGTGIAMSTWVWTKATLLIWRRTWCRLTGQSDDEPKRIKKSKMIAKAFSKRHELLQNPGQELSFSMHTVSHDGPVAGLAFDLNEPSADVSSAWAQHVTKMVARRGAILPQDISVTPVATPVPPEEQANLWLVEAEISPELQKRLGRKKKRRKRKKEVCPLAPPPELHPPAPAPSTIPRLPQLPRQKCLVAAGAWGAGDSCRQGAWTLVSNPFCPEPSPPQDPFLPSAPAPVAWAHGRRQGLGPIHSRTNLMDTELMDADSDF

CYP3A4 = CYP3A4 (Homo sapiens, UniProt P08684); assay: Inhibition of CYP3A4 at 10 uM; type: ADME
Chain of CYP3A4 (P08684 whole entry): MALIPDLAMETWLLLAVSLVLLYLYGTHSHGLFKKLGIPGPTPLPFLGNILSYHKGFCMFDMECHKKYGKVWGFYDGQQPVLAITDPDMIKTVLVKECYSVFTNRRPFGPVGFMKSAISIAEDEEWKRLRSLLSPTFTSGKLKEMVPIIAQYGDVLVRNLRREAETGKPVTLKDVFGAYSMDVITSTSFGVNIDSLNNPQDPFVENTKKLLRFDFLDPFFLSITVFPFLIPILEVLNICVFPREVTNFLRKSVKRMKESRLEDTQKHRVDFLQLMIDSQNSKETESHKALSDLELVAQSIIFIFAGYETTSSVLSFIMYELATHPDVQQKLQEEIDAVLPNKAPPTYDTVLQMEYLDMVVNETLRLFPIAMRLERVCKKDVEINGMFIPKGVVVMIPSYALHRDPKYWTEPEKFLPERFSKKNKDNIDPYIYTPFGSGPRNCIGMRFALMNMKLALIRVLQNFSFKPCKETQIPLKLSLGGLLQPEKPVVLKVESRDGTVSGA

[3] = Lipophilicity, log D of the compound; type: physicochemical; details: octanol/water
[4] = Intrinsic clearance in rat liver microsomes assessed per mg of protein; type: ADME, Microsome
Protein smoothened [5] = molecular target: T1, Protein smoothened; assay: Displacement of Bodipy-labelled cyclopamine from Smo expressed in COS-1 cells in presence of 2% FBS after 4 to 6 hrs by FACS flow cytometric analysis; type: cell-based
Protein smoothened [6] = molecular target: T1, Protein smoothened; assay: Inhibition of Bodipy-labelled cyclopamine binding to Smo expressed in COS-1 cells at 25 uM in presence of 20% NHS after 4 to 6 hrs by FACS flow cytometric analysis; type: cell-based
[7] = Clearance in rat; type: ADME, organism-based; details: in vivo
[8] = Oral bioavailability in rat; type: ADME, organism-based; details: in vivo
[9] = Fraction unbound in human plasma; type: ADME, cell-free
[10] = tested on: Potassium voltage-gated channel subfamily H member 2 (hERG), Homo sapiens; assay: Inhibition of human ERG at 10 uM
[11] = Intrinsic clearance in human liver microsomes assessed per mg of protein; type: ADME, Microsome
[12] = Fraction unbound in rat plasma; type: ADME, cell-free
[13] = Intrinsic clearance in dog liver microsomes assessed per mg of protein; type: ADME, Canis lupus familiaris, Microsome
Shh Light II [14] = assay: Inhibition of Shh signaling in mouse Shh-light2 cells at 20 uM by Gli-dependent firefly luciferase reporter gene assay; type: functional
Protein smoothened [15] = molecular target: T1, Protein smoothened; assay: Inhibition of Bodipy-labelled cyclopamine binding to Smo expressed in COS-1 cells at 10 uM in presence of 2% FBS after 4 to 6 hrs by FACS flow cytometric analysis; type: cell-based
Shh Light II [16] = assay: Inhibition of Shh signaling in mouse Shh-light2 cells at 10 uM by Gli-dependent firefly luciferase reporter gene assay; type: functional
Protein smoothened [17] = molecular target: T1, Protein smoothened; assay: Inhibition of Bodipy-labelled cyclopamine binding to Smo expressed in COS-1 cells at 2.5 uM in presence of 2% FBS after 4 to 6 hrs by FACS flow cytometric analysis; type: cell-based
Protein smoothened [18] = molecular target: T1, Protein smoothened; assay: Inhibition of Bodipy-labelled cyclopamine binding to Smo expressed in COS-1 cells at 2 uM in presence of 2% FBS after 4 to 6 hrs by FACS flow cytometric analysis; type: cell-based
Cytochrome P450 3A4 = Cytochrome P450 3A4 (Homo sapiens, UniProt P08684); assay: Inhibition of CYP3A4; type: ADME
Chain of Cytochrome P450 3A4 (P08684 whole entry): as above

[19] = molecular target: Potassium voltage-gated channel subfamily H member 2 (hERG), Homo sapiens; assay: Inhibition of human ERG
Cytochrome P450 2C9 = Cytochrome P450 2C9 (Homo sapiens, UniProt P11712); assay: Inhibition of CYP2C9; type: ADME
Chain of Cytochrome P450 2C9 (P11712 whole entry): as the sequence (P11712 whole entry) above

Cytochrome P450 2D6 = Cytochrome P450 2D6 (Homo sapiens, UniProt P10635); assay: Inhibition of CYP2D6; type: ADME
Chain of Cytochrome P450 2D6 (P10635 whole entry): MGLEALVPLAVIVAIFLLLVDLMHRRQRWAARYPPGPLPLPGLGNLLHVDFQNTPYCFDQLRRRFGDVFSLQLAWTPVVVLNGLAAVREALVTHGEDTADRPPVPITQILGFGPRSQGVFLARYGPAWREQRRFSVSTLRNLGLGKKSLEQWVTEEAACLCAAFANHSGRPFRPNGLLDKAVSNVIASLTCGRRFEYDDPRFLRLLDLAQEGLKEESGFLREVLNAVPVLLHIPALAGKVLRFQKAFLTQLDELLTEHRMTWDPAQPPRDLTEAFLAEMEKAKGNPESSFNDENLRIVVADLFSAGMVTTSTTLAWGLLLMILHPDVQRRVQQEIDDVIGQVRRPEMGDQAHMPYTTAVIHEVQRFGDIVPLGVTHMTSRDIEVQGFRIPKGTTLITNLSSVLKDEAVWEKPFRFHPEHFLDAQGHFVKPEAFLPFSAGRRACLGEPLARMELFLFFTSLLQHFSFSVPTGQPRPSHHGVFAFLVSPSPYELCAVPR

[20] = Inhibition of cytochrome P450 at 30 uM; type: ADME
[21] = Clearance in dog; type: ADME, organism-based, Canis lupus familiaris; details: in vivo
[22] = Induction of cytochrome P450 at 30 uM; type: ADME
[23] = Half life in dog; type: ADME, organism-based, Canis lupus familiaris; details: in vivo
[24] = Terminal half life in rat; type: ADME, organism-based; details: in vivo, read-out: beta t1/2 (converted)
Protein smoothened [25] = molecular target: T1, Protein smoothened; assay: Inhibition of Bodipy-labelled cyclopamine binding to Smo expressed in COS-1 cells at 4 uM in presence of 2% FBS after 4 to 6 hrs by FACS flow cytometric analysis; type: cell-based

IC50 (Shh Light II [1]): 430 nM
inhibition at 10 µM (CYP2C9): 44%
IC50 (Protein smoothened [2]): 4500 nM
inhibition at 10 µM (CYP3A4): 35%
logD [3]: 2.85
microsomal CLint [4]: 174 µL/min/mg
IC50 (Protein smoothened [5]): 1000 nM
Structure (SMILES): Cn1c(-c2noc(C3CCN(C(=O)Nc4ccccc4Cl)CC3)n2)nc2ccccc21

IC50 (Shh Light II [1]): 2700 nM
inhibition (Protein smoothened [6]): 65%
IC50 (Protein smoothened [5]): 2500 nM
Structure (SMILES): O=C(NC1CCC(O)CC1)N1CCC(c2nc(-c3ccc4ccccc4n3)no2)CC1 (stereo not drawn)

IC50 (Shh Light II [1]): 510 nM
clearance [7]: 11 mL/min/kg
inhibition at 10 µM (CYP2C9): 62%
bioavailability [8]: 38%
fraction unbound [9]: 0.005
microsomal CLint [11]: 45 µL/min/mg
IC50 (Protein smoothened [2]): 3500 nM
inhibition at 10 µM (CYP3A4): 58%
logD [3]: 4.25
microsomal CLint [4]: > 200 µL/min/mg
IC50 (Protein smoothened [5]): 380 nM
fraction unbound [12]: 0.01
microsomal CLint [13]: 65 µL/min/mg
Structure (SMILES): O=C(Nc1ccccc1Cl)N1CCC(c2nc(-c3ccc4ccccc4n3)no2)CC1
inhibition [10]: 62%

IC50 (Protein smoothened [5]): 4700 nM
Structure (SMILES): COc1ccccc1NC(=O)N1CCC(c2nnc(-c3ccc4ccccc4n3)o2)CC1
inhibition at 20 µM (Shh Light II [14]): 57%

inhibition (Protein smoothened [15]): 39%
Structure (SMILES): COc1ccccc1NC(=O)N1CC(c2nc(-c3ccc4ccccc4n3)no2)C1
inhibition at 10 µM (Shh Light II [16]): 28%

inhibition (Protein smoothened [15]): 38%
Structure (SMILES): COc1ccccc1NC(=O)N1CCC(c2nc(-c3ccc4ccccc4n3)no2)C1 (stereo not drawn)
inhibition at 10 µM (Shh Light II [16]): 15%

inhibition (Protein smoothened [17]): 63%
Structure (SMILES): Cc1cccnc1-c1noc(C2CCN(C(=O)Nc3ccccc3Cl)CC2)n1

inhibition (Protein smoothened [18]): 51%
Structure (SMILES): COc1ccccc1NC(=O)N1CCC(c2nc(-c3ncccc3C)no2)CC1

IC50 (Shh Light II [1]): 140 nM
IC50 (Cytochrome P450 3A4): > 25000 nM
IC50 (Cytochrome P450 2C9): > 25000 nM
IC50 (Cytochrome P450 2D6): > 25000 nM
IC50 (Protein smoothened [2]): 700 nM
logD [3]: 2.95
IC50 (Protein smoothened [5]): 170 nM
Structure (SMILES): O=C(Nc1ccccc1Cl)N1CCN(c2nc(-c3ccc4ccccc4n3)no2)CC1
IC50 [19]: 12000 nM

IC50 (Shh Light II [1]): 5 nM
clearance [7]: 32 mL/min/kg
inhibition (INH) [20]: Not Active
microsomal CLint [11]: 8 µL/min/mg
IC50 (Protein smoothened [2]): 39 nM
logD [3]: 2.67
microsomal CLint [4]: 61 µL/min/mg
clearance [21]: 20 mL/min/kg
Activity [22]: Not Active
half-life [23]: 1.1 h
half-life [24]: 1.3 h
Structure (SMILES): O=C(NC1CCC(F)(F)CC1)N1CCN(c2nc(-c3ccc4ccccc4n3)no2)CC1

inhibition (Protein smoothened [25]): 68%
IC50 (Protein smoothened [5]): > 2500 nM
Structure (SMILES): COc1ccc(NC(=O)N2CCC(c3nc(-c4ccc5ccccc5n4)no3)CC2)cc1

IC50 (Shh Light II [1]): 53 nM
clearance [7]: 54 mL/min/kg
inhibition (INH) [20]: Not Active
bioavailability [8]: 24%
microsomal CLint [11]: 60 µL/min/mg
IC50 (Protein smoothened [2]): 180 nM
logD [3]: 2.76
microsomal CLint [4]: 189 µL/min/mg
clearance [21]: 16 mL/min/kg
Activity [22]: Not Active
IC50 (Protein smoothened [5]): 45 nM
half-life [23]: 1.4 h
half-life [24]: 1.1 h
microsomal CLint [13]: 54 µL/min/mg
Structure (SMILES): O=C(NC1CCCCC1)N1CCN(c2nc(-c3ccc4ccccc4n3)no2)CC1
IC50 [19]: > 30000 nM
